The pest or weed control is how far the test organism was held down.

Holding throughout (type): in vivo
Data set [1] relates to Winter Wheat variety 'Hereward'. In words: Crop damage to winter wheat seed treated with safener cloquintocet mexyl, post-emergence spray. The note with it: 250 g/ha, seed treated with cloquintocet mexyl 0.5 g/kg seed, evaluated after 13 days, 100=total damage, 0=no damage. As for the experimental part:
Seeds of the Winter Wheat variety ‘Hereward’ were seed treated with a wettable powder formulation of the cereal herbicide safener, cloquintocet mexyl, at a rate of 0.5 grams per kilogram of dry seed prior to the initiation of glasshouse testing. One seed was sown per 1.5 inch plastic pot into a sandy loam soil at a depth of 1 cm, 8 days prior to application of the test compounds and was watered and grown under controlled conditions in a glasshouse (at 24/16° C., day/night; 14 hours light; 65% humidity). The plants were sprayed post-emergence with an aqueous spray solution derived from the formulation of the technical active ingredient in acetone/water (50:50) solution containing 0.5% Tween 20 (polyoxyethylene sorbitan monolaurate, CAS RN 9005-64-5). The test plants were then grown in a glasshouse under controlled conditions in a glasshouse (at 24/16° C., day/night; 14 hours light; 65% humidity) and watered twice daily. After 13 days for pre and post-emergence, the test was evaluated (100=total damage to plant; 0=no damage to plant).

For data set [2], the system named is Avena fatua (AVEFA). In words: Pre-emergence herbicidal activity, glasshouse pot test. Conditions: rate not printed (columns shifted), evaluated after 13 days, 100=total damage to plant, 0=no damage. As for the experimental part:
(§1) Seeds of a variety of test species are sown in standard soil in pots. After cultivation for one day (pre-emergence) or after 8 days cultivation (post-emergence) under controlled conditions in a glasshouse (at 24/16° C., day/night; 14 hours light; 65% humidity), the plants are sprayed with an aqueous spray solution derived from the formulation of the technical active ingredient in acetone/water (50:50) solution containing 0.5% Tween 20 (polyoxyethylene sorbitan monolaurate, CAS RN 9005-64-5). The test plants are then grown in a glasshouse under controlled conditions in a glasshouse (at 24/16° C., day/night; 14 hours light; 65% humidity) and watered twice daily. After 13 days for pre and post-emergence, the test is evaluated (100=total damage to plant; 0=no damage to plant). Lolium perenne (LOLPE), Alopecurus myosuroides (ALOMY), Echinochloa crus-galli (ECHCG), Avena fatua (AVEFA) Pre-Emergence Activity

Data set [3] concerns Lolium perenne (LOLPE). Described as above. The note with it: rate not printed (columns shifted), evaluated after 13 days, 100=total damage to plant, 0=no damage. As for the experimental part: as §1
Data set [4] has as its system Echinochloa crus-galli (ECHCG). Described as above. Conditions: rate not printed (columns shifted), evaluated after 13 days, 100=total damage to plant, 0=no damage. As for the experimental part: as §1
Data set [5] relates to Alopecurus myosuroides (ALOMY). Described as above. Conditions: rate not printed (columns shifted), evaluated after 13 days, 100=total damage to plant, 0=no damage. As for the experimental part:
as §1

Data set [6] deals with Winter Wheat variety 'Hereward'. In words: Crop damage to winter wheat, post-emergence spray. The note with it: 250 g/ha, no safener, evaluated after 13 days, 100=total damage to plant, 0=no damage. The method, then: Seeds of the Winter Wheat variety ‘Hereward’ were sown in standard soil in pots. After 8 days cultivation under controlled conditions in a glasshouse (at 24/16° C., day/night; 14 hours light; 65% humidity), the plants were sprayed post-emergence with an aqueous spray solution derived from the formulation of the technical active ingredient in acetone/water (50:50) solution containing 0.5% Tween 20 (polyoxyethylene sorbitan monolaurate, CAS RN 9005-64-5). The test plants were then grown in a glasshouse under controlled conditions in a glasshouse (at 24/16° C., day/night; 14 hours light; 65% humidity) and watered twice daily. After 13 days for pre and post-emergence, the test was evaluated (100=total damage to plant; 0=no damage to plant).

The test system of data set [7] is Avena fatua (AVEFA). Description: Post-emergence herbicidal activity, glasshouse pot test. The note with it: 312 h, evaluated after 13 days, 100=total damage to plant, 0=no damage. As for the experimental part: as §1, with “Post-Emergence” for “Pre-Emergence”
For data set [8], the system named is Lolium perenne (LOLPE). The description is as above. The note with it: 312 h, evaluated after 13 days, 100=total damage to plant, 0=no damage. As for the experimental part: as §1, with “Post-Emergence” for “Pre-Emergence”
The subject of data set [9] is Echinochloa crus-galli (ECHCG). Described as above. The note with it: 312 h, evaluated after 13 days, 100=total damage to plant, 0=no damage. The method, then: as §1, with “Post-Emergence” for “Pre-Emergence”
Data set [10] has as its system Alopecurus myosuroides (ALOMY). The data set is described as above. Conditions: 312 h, evaluated after 13 days, 100=total damage to plant, 0=no damage. As for the experimental part:
as §1, with “Post-Emergence” for “Pre-Emergence”

On to `Cc1sc(-c2ccc(Cl)cc2)nc1C1C(=O)CC(Cc2ccccn2)C1=O` (centres unmarked) [Compound A16], for which the “Winter Wheat (Hereward) + cloquintocet mexyl (damage to plant)” value in data set [1] is 60. Moreover, the “Pre-Emergence Activity AVEFA (damage to plant)” value (shortened to “Pre-Emergence Activity AVEFA”) in [2] came out at 80. In [3], the “Pre-Emergence Activity LOLPE (damage to plant)” value (“Pre-Emergence Activity LOLPE” for short) turned out to be 90. Besides, in data set [4], the “Pre-Emergence Activity ECHCG (damage to plant)” value (“Pre-Emergence Activity ECHCG” below) is 100. In addition, in [5], the “Pre-Emergence Activity ALOMY (damage to plant)” value (shortened to “Pre-Emergence Activity ALOMY”) amounted to 90. The “Winter Wheat (Hereward) (damage to plant)” value in [6] turned out to be 60. Further, the pest or weed control at 250 g/ha in [7] was 100%; in data set [8] it was 100%; in data set [9], 100%; in data set [10], 90%.
On to `Cc1sc(-c2ccc(C(C)C)cc2)nc1C1C(=O)C/C(=C\C2CCOCC2)C1=O` (centres unmarked) [Compound A1], for which the “Winter Wheat (Hereward) + cloquintocet mexyl (damage to plant)” value in data set [1] was 0. Moreover, the “Pre-Emergence Activity AVEFA” value in [2] stood at 0. Moreover, the “Pre-Emergence Activity LOLPE” value in [3] was found to be 10. Besides, in data set [4], the “Pre-Emergence Activity ECHCG” value was 50. In addition, the “Pre-Emergence Activity ALOMY” value in data set [5] is 10. The “Winter Wheat (Hereward) (damage to plant)” value in data set [6] was found to be 20. In addition, the pest or weed control at 250 g/ha in data set [7] is 0%; in data set [8] it was 0%; in data set [9] it was 10%; in data set [10], 10%.
`Cc1sc(-c2ccc(Cl)cc2)cc1C1C(=O)CC(CC2CCOC2)C1=O` (centres unmarked) [Compound A5]: the pest or weed control at 250 g/ha in data set [7] was found to be 50%; in [8], 30%; in data set [9], 80%; in data set [10] it was 50%.
In the case of `Cc1cnc(-c2ccc(Cl)cc2)nc1C1C(=O)CC(CC2CCOCC2)C1=O` (centres unmarked) [Compound A8], in data set [1], the “Winter Wheat (Hereward) + cloquintocet mexyl (damage to plant)” value is reported as 0. The “Pre-Emergence Activity AVEFA” value in data set [2] is 60. Besides, the “Pre-Emergence Activity LOLPE” value in data set [3] came to 80. Besides, the “Pre-Emergence Activity ECHCG” value in [4] is 100. In addition, the “Pre-Emergence Activity ALOMY” value in data set [5] came to 50. In [6], the “Winter Wheat (Hereward) (damage to plant)” value is listed as 20. Also, the pest or weed control at 250 g/ha in data set [7] was determined as 50%; in [8] it was 50%; in data set [9] it was 90%; in [10], 50%.
As to `CCc1sc(-c2ccc(Cl)cc2)nc1C1C(=O)C/C(=C\C2CCOCC2)C1=O` (centres unmarked) [Compound A7], in data set [1], the “Winter Wheat (Hereward) + cloquintocet mexyl (damage to plant)” value was found to be 40. In addition, in [2], the “Pre-Emergence Activity AVEFA” value is given as 70. Besides, the “Pre-Emergence Activity LOLPE” value in [3] is on record as 80. The “Pre-Emergence Activity ECHCG” value in data set [4] stood at 100. In data set [5], the “Pre-Emergence Activity ALOMY” value was found to be 70. For the same compound, the “Winter Wheat (Hereward) (damage to plant)” value in data set [6] amounted to 90. Also, the pest or weed control at 250 g/ha in data set [7] was found to be 100%; in data set [8], 60%; in [9] it was 100%; in data set [10], 90%.
Take `Cc1sc(COc2ccc(Cl)cc2)nc1C1C(=O)C/C(=C\C2CCOCC2)C1=O` (centres unmarked) [Compound A3]: the pest or weed control at 250 g/ha in data set [7] turned out to be 0%; in data set [8] it was 0%; in data set [9], 20%; in data set [10], 10%.
Turning to `Cc1sc(-c2ccc(Cl)cc2)nc1C1C(=O)C/C(=C\c2ccoc2)C1=O` (centres unmarked) [Compound A11], the pest or weed control at 250 g/ha in [7] was 0%; in [8] it was 0%; in data set [9], 80%; in data set [10], 10%.
For `Cc1sc(-c2ccccc2)nc1C1C(=O)CC(CC2CCOCC2)C1=O` (centres unmarked) [Compound A17], the “Winter Wheat (Hereward) + cloquintocet mexyl (damage to plant)” value in data set [1] is recorded as 40. In addition, the “Pre-Emergence Activity AVEFA” value in [2] turned out to be 50. In addition, the “Pre-Emergence Activity LOLPE” value in data set [3] turned out to be 100. Besides, the “Pre-Emergence Activity ECHCG” value in data set [4] is given as 100. In data set [5], the “Pre-Emergence Activity ALOMY” value worked out at 70. For the same compound, the “Winter Wheat (Hereward) (damage to plant)” value in [6] stood at 60. Also, the pest or weed control at 250 g/ha was 90% in [7], 100% in data set [8], 100% in data set [9] and 90% in [10].
Consider `Cc1cc(-c2ccc(Cl)cc2)nn1C1C(=O)C/C(=C\c2ccc(F)cn2)C1=O` (centres unmarked) [Compound A21], for which, in data set [1], the “Winter Wheat (Hereward) + cloquintocet mexyl (damage to plant)” value was found to be 10. The “Pre-Emergence Activity AVEFA” value in [2] came out at 10. Besides, the “Pre-Emergence Activity LOLPE” value in data set [3] was found to be 90. The “Pre-Emergence Activity ECHCG” value in [4] is 90. The “Pre-Emergence Activity ALOMY” value in data set [5] was determined as 40. The “Winter Wheat (Hereward) (damage to plant)” value in [6] was found to be 20. For the same compound, the pest or weed control at 250 g/ha in data set [7] stood at 30%; in data set [8], 60%; in data set [9], 90%; in data set [10], 70%.
Regarding `Cc1sc(-c2ccc(Cl)cc2)nc1C1C(=O)C/C(=C/c2ccccn2)C1=O` (centres unmarked) [Compound A15], the “Winter Wheat (Hereward) + cloquintocet mexyl (damage to plant)” value in data set [1] came out at 0. Further, the “Winter Wheat (Hereward) (damage to plant)” value in data set [6] is reported as 10. In addition, the pest or weed control at 250 g/ha in data set [7] came to 0%; in [8], 0%; in data set [9] it was 20%; in data set [10] it was 10%.
For the compound `Cc1sc(-c2ccc(Cl)cc2)cc1C1C(=O)CC(CC2CCOCC2)C1=O` (centres unmarked) [Compound A6], in data set [1], the “Winter Wheat (Hereward) + cloquintocet mexyl (damage to plant)” value is listed as 0. For the same compound, in data set [6], the “Winter Wheat (Hereward) (damage to plant)” value turned out to be 10. The pest or weed control at 250 g/ha in [7] came out at 0%; in [8], 0%; in data set [9], 60%; in [10] it was 50%.
For `Cc1sc(-c2ccc(Br)cn2)nc1C1C(=O)C/C(=C\C2CCOCC2)C1=O` (centres unmarked) [Compound A4], the pest or weed control at 250 g/ha in [7] came to 0%; in data set [8] it was 0%; in [9], 70%; in [10], 20%.
With `Cc1ccc2c(cnn2C)c1C1C(=O)CC(CC2CCOCC2)C1=O` (centres unmarked) [Compound A19], the pest or weed control at 250 g/ha is 10% in [7], 0% in [8], 40% in data set [9] and 20% in data set [10].
As for `Cc1sc(-c2ccc(Cl)cc2)nc1C1C(=O)C/C(=C\c2ccc(F)cn2)C1=O` (centres unmarked) [Compound A13], the pest or weed control at 250 g/ha in data set [7] is 10%; in data set [8], 0%; in [9], 20%; in [10], 10%.
On to `Cc1sc(COc2ccc(Cl)cc2)nc1C1C(=O)CC(CC2CCOCC2)C1=O` (centres unmarked) [Compound A2], for which the pest or weed control at 250 g/ha came to 0% in data set [7], 10% in data set [8], 20% in data set [9] and 10% in [10].
Take `Cc1sc(-c2ccc(Cl)cc2)cc1C1C(=O)C/C(=C\C2CCOCC2)C1=O` (centres unmarked) [Compound A10]: the pest or weed control at 250 g/ha in data set [7] turned out to be 0%; in data set [8], 10%; in data set [9], 70%; in data set [10], 20%.

Values taken from patent publication US9051300B2, “Herbicides” (Syngenta Limited, priority 2009, dated 2015).
